Structures can show the parent of a compound that is named as a salt.
Key:
[1] = I.P. symptomatology: highest tolerated dose and median lethal dose (Table IV); assay type: in vivo
[2] = in vivo; conditions: po
[3] = Mouse tail stimulation (MTS) (Table IV); assay type: in vivo; design: unit not given here; conditions: S.C.
[4] = tested on: Morphine Analgesia; assay type: in vivo, rat; conditions: for narcotic antagonist potency relative to pentazocine: compared with pentazocine, Table II
[5] = Analgesic activity summarized over hot plate and writhing methods (Table I); conditions: for analgesic activity, ranking among tested compounds / separation between effective dose and toxic or lethal doses: Table I; for separation between effective dose and toxic or lethal doses: therapeutic index
[6] = Narcotic antagonism (Table IV); assay type: in vivo; conditions: I.P.
[7] = Local anesthetic sciatic block (Table IV); assay type: in vivo; conditions: 1%
[8] = Writhing analgesia (Table I); assay type: in vivo; conditions: oral; vs pentazocine

Compound: Oc1ccc2c(c1)CCN(C[C@H]1C[C@@H]1c1ccccc1)CC2 (relative stereo) [Example 30, 7-Hydroxy-3(trans-2-phenylcyclopropylmethyl)-1,2,4,5-tetrahydro-3H,3-benzazepine]
- LD50 ([1]; in vivo, ip, I.P.): > 1000 mg/kg

Compound: CC1Cc2ccccc2CCN1 (single isomer, unassigned; (+)) [Example 49, (+)-2-Methyl-1,2,4,5-tetrahydro-3H,3-benzazepine hydrochloride]
- LD50 (median lethal dose) ([1]; I.P., hydrochloride): 200 mg/kg

Compound: CC1Cc2ccccc2CCN1 (single isomer, unassigned; (-)) [Example 48, (-)-2-Methyl-1,2,4,5-tetrahydro-3H,3-benzazepine]
- LD50 (median lethal dose) ([1]; I.P.): 60 mg/kg

Compound: CC1Cc2ccccc2CCN1C (single isomer, unassigned; (-)) [Example 54, (-)-2,3-Dimethyl-1,2,4,5-tetrahydro-3H,3-benzazepine hydrochloride]
- LD50 (median lethal dose) ([1]; I.P., hydrochloride): 60 mg/kg

Compound: COc1ccc2c3c1O[C@H]1[C@@H](O)C=C[C@H]4[C@@H](C2)N(C)CC[C@@]341 [Codeine]
- LD50 [2]: 540 mg/kg

Compound: COc1ccc2c(c1)CCNCC2 [Example 1, 7-Methoxy-1,2,4,5-tetrahydro-3H,3-benzazepine]
- MTS (mouse tail stimulation) [3]: > 3

Compound: CC(C)=CCN1CCc2ccc(O)cc2CC1 [Example 4, 3-(3,3-Dimethylallyl)-7-hydroxy-1,2,4,5-tetrahydro-3H,3-benzazepine]
- MTS (mouse tail stimulation) [3]: > 56
- narcotic antagonist potency relative to pentazocine [4]: more potent antagonist than pentazocine

Compound: CC(=O)Oc1ccc2c(c1)CCN(CC=C(C)C)CC2 [Example 5, 7-Acetoxy-3-(3,3-dimethylallyl)-1,2,4,5-tetrahydro-3H,3-benzazepine hydrochloride]
- MTS (mouse tail stimulation) [3]: > 30

Compound: C=CCN1CCc2ccc(OC)cc2CC1 [Example 14, 3-Allyl-7-methoxy-1,2,4,5-tetrahydro-3H,3-benzazepine]
- narcotic antagonist potency relative to pentazocine [4]: about equipotent to pentazocine

Compound: COc1ccc2c(c1)CCN(C)CC2 [Example 18, 7-Methoxy-3-methyl-1,2,4,5-tetrahydro-3H,3-benzazepine]
- oral analgesic activity [5]: active by the oral route

Compound: COc1ccc2c(c1)CCN(CCc1ccccc1)CC2 [Example 24, 7-Methoxy-3-phenethyl-1,2,4,5-tetrahydro-3H,3-benzazepine]
- Narcotic Antagonism [6]: Positive
- analgesic activity, ranking among tested compounds [5]: most active compounds
- separation between effective dose and toxic or lethal doses [5]: greatest separation between effective dose and toxic or lethal doses
- MTS (mouse tail stimulation) [3]: 5
- narcotic antagonist potency relative to pentazocine [4]: about equipotent to pentazocine
- MTD ([1]; in vivo, ip, I.P. symptomatology, read-out: HTD (highest tolerated dose)): 30 mg/kg

Compound: Oc1ccc2c(c1)CCN(CCc1ccccc1)CC2 [Example 25, 7-Hydroxy-3-phenethyl-1,2,4,5-tetrahydro-3H,3-benzazepine]
- HNSD (Highest Non Symptomatic Dose) (IP (Intraperitoneal)): 55 mg/kg

Compound: COc1ccc2c(c1)CCN(CC=Cc1ccccc1)CC2 [Example 28, 7-Methoxy-3-(3-phenylallyl)-1,2,4,5-tetrahydro-3H,3-benzazepine]
- oral analgesic activity [5]: active by the oral route
- MTS (mouse tail stimulation) [3]: 10
- narcotic antagonist potency relative to pentazocine [4]: about equipotent to pentazocine

Compound: COc1ccc2c(c1)CCN(CCN1CCN(c3ccccc3)CC1)CC2 [Example 31, 7-Methoxy-3-[2-(4-phenyl-1-piperazinyl)ethyl]-1,2,4,5-tetrahydro-3H,3-benzazepine]
- analgesic activity, ranking among tested compounds [5]: most active compounds
- separation between effective dose and toxic or lethal doses [5]: greatest separation between effective dose and toxic or lethal doses
- MTS (mouse tail stimulation) [3]: 20

Compound: CC(C)=CCN1CCc2ccc(O)cc2CC1C (stereo not shown) [Example 34, 3-(3,3-Dimethylallyl)-8-hydroxy-2-methyl-1,2,4,5-tetrahydro-3H,3-benzazepine hydrochloride]
- MTS (mouse tail stimulation) [3]: > 40

Compound: COc1ccc2c(c1)CC(C)N(CCc1ccccc1)CC2 (stereo not shown) [Example 36, 8-Methoxy-2-methyl-3-phenethyl-1,2,4,5-tetrahydro-3H,3-benzazepine hydrochloride]
- MTS (mouse tail stimulation) [3]: 10
- Local Anesthetic Sciatic Block [7]: Insoluable

Compound: c1ccc2c(c1)CCN(CC1CC1)CC2 [Example 37, 3-Cyclopropylmethyl-1,2,4,5-tetrahydro-3H,3-benzazepine hydrochloride]
- writhing activity relative to pentazocine [8]: approximately twice as active as pentazocine
- oral analgesic activity [5]: active by the oral route
- MTS (mouse tail stimulation) [3]: 10

Compound: C=CCN1CCc2ccc(OC)cc2CC1C (stereo not shown) [Example 38, 3-Allyl-8-methoxy-2-methyl-1,2,4,5-tetrahydro-3H,3-benzazepine hydrochloride]
- MTS (mouse tail stimulation) [3]: > 10

Compound: CC1Cc2cc(O)ccc2CCN1CC1CC1 (stereo not shown) [Example 41, 3-Cyclopropylmethyl-8-hydroxy-2-methyl-1,2,4,5-tetrahydro-3H,3-benzezepine hydrochloride]
- MTS (mouse tail stimulation) [3]: > 30

Compound: C=CCN1CC[C@]23c4c5ccc(O)c4O[C@H]2[C@@H](O)C=C[C@H]3[C@H]1C5 [Nalorphine, reference compound]
- Antagonism of Morphine Analgesia, times more active than compounds listed above ([4]; rat, in vivo, sc): 20-100

Compound: CC(C)=CCN1CCC2(C)c3cc(O)ccc3CC1C2C (stereo not shown) [Pentazocine, reference compound]
- LDSO (IP): > 500 mg/kg

— US4233217A, “Substituted 1,2,4,5-tetrahydro-3H, 3 benzazepines” (priority 1979, dated 1980)
